Series [1] concerns Ehrlich ascites carcinoma. Kind of series: Preventive effect against the growth of Ehrlich ascites tumor (method A). The format is in vivo, mice. The following applies: for Therapeutic index: M. T. D./M. E. D.; for inhibition in vivo at 3.12 mg/kg/day: dose 3.12 mg/kg/day i.p. x 5 days; for inhibition in vivo at 6.25 mg/kg/day: dose 6.25 mg/kg/day i.p. x 5 days; for inhibition in vivo at 12.5 mg/kg/day: dose 12.5 mg/kg/day i.p. x 5 days; for minimal effective dose: minimum effective dose which shows 100% inhibition for the growth of the ascites tumor, dose column in mg/kg/day, read-out: MED; for Toxic: group of five mice; for inhibition in vivo at 0.19 mg/kg/day: dose 0.19 mg/kg/day i.p. x 5 days; for inhibition in vivo at 0.39 mg/kg/day: dose 0.39 mg/kg/day i.p. x 5 days; for inhibition in vivo at 0.78 mg/kg/day: dose 0.78 mg/kg/day i.p. x 5 days; for inhibition in vivo at 0.097 mg/kg/day: dose 0.097 mg/kg/day i.p. x 5 days; for inhibition in vivo at 0.195 mg/kg/day: dose 0.195 mg/kg/day i.p. x 5 days; for inhibition in vivo at 1.56 mg/kg/day: dose 1.56 mg/kg/day i.p. x 5 days. On the procedure: (§1) (A) Preventive effect against the growth of Ehrlich ascites tumor:
(§2) 10^6 tumor cells of Ehrlich ascites carcinoma were inoculated intraperitoneally into a group of five female mice (ICR mice, body weight: 19-23 g). A test compound was dissolved in a physiological saline solution. (In the case where CCNU was employed as the test compound, said compound was suspended in a physiological saline solution containing 0.1% NIKKOL HCO-60 (trademark; a surface active agent manufactured by Nikko Chemicals Co. Ltd.)) and administered intraperitoneally to the mice. The administration of the test compound was begun 24 hours after the inoculation of the tumor cells and performed once a day for 5 days. The volume of ascites in the treated mice were measured after 7 days of the experiment.

The subject of series [2] is leukemic cells of L-1210. As to the kind of experiment: Effect on the life span of mice implanted with leukemic cells of L-1210 (method B). Format: in vivo. The following applies: for ILS (%): Increase in Life Span; for 60-day survivors: mice survived for 60 days/mice used. On the procedure:
(B) Effect on the life span of mice implanted with leukemic cells of L-1210:
10^5 leukemic cells of L-1210were inoculated intraperitoneally into a group of four male mice (BDF1 mice, body weight: 19-23 g). A test compound was dissolved in a physiological saline solution and administered intraperitoneally to the mice. The administration of the test compound was begun 24 hours after the inoculation of the leukemic cells and performed once a day for 5 days. The survival days of the treated mice were observed.

Series [3] can be described thus: Preventive effect against the growth of Ehrlich ascites tumor (method A). The format is in vivo, mice. The following applies: mouse, in vivo, ip; Maximum Tolerated Dose: maximum dose with 100% inhibition of Ehrlich ascites tumor growth without death of mice; dose column in mg/kg/day. The protocol:
as §1, §2

Setting [4] is: Mus musculus, Ehrlich, ip, 168 h, read-out: Inhibition ratio (%).
Where [5] appears, read: Mus musculus, Ehrlich, ip, 168 h, dose 50 mg/kg/day i.p. x 5 days, read-out: Inhibition ratio (%).
The mark [6] stands for this setting: Mus musculus, Ehrlich, ip, 168 h.
The mark [7] stands for this setting: dose 100 mg/kg/day i.p. x 5 days.
Where [8] appears, read: dose 6.25 mg/kg/day i.p. x 5 days.
Where [9] appears, read: dose 12.5 mg/kg/day i.p. x 5 days.
[10] abbreviates: dose 25 mg/kg/day i.p. x 5 days.
The mark [11] stands for this setting: T (treated mice), dose 6.25 mg/kg/day i.p. x 5 days.
The mark [12] stands for this setting: T (treated mice), dose 12.5 mg/kg/day i.p. x 5 days.
Where [13] appears, read: dose 3.12 mg/kg/day i.p. x 5 days.
The mark [14] stands for this setting: T (treated mice), dose 3.12 mg/kg/day i.p. x 5 days.
Setting [15] is: Mus musculus, Ehrlich, ip, 168 h, dose 25 mg/kg/day i.p. x 5 days, read-out: Inhibition ratio (%).
Where [16] appears, read: dose 50 mg/kg/day i.p. x 5 days.
Setting [17] is: dose 1.56 mg/kg/day i.p. x 5 days.

Marks after values point to notes of the source that are not given here.

`O=NN(CCCl)C(=O)NC1CCCCC1` [CCNU, 1-(2-chloroethyl)-1-nitroso-3-cyclohexylurea, reference compound]: the Therapeutic index in series [1] was 4. Moreover, in series [1] (setting [4]), the inhibition in vivo at 3.12 mg/kg/day was determined as 21.1%, the inhibition in vivo at 6.25 mg/kg/day is 33.3% and the inhibition in vivo at 12.5 mg/kg/day is 100%. For the same molecule, the inhibition in vivo at 50 mg/kg/day in series [1] (setting [5]) worked out at 100%. For the same molecule, in series [1] (setting [6]), the minimal effective dose is 12.5 mg/kg/day. Also, the “Toxic” value in series [1] (setting [7]) is on record as “Toxic (5/5)*”.

Take `CCCCN(C(=O)N(CCCl)N=O)[C@@H]1[C@@H](O)[C@@H](OC)O[C@H](CO)[C@H]1O` [Compound 1, 1 - (2 - chloroethyl) - 1 - nitroso - 3 - n - butyl - 3 - (methyl 3 - deoxy - a - D - glucopyranosid - 3 - yl)urea]: in series [2] (setting [8]), the “ILS (%)” value was found to be 111.3% and the 60-day survivors was 0/4. In addition, in series [2] (setting [9]), the “ILS (%)” value is >745.1% and the 60-day survivors is listed as 4/4. In series [2] (setting [10]), the “ILS (%)” value is >745.1% and the 60-day survivors is 4/4. For the same molecule, the “Mean survival days (T/C)” value in series [2] (setting [11]) is given as 15.0/7.1 days. Also, the “Mean survival days (T/C)” value in series [2] (setting [12]) is >60.0/7.1 days. Also, the “Mean survival days (T/C)” value in series [2] (T (treated mice; figure after the slash is untreated control C), dose 25 mg/kg/day i.p. x 5 days) is >60.0/7.1 days. Also, the Therapeutic index in series [1] stood at 64. For the same molecule, in series [1] (setting [4]), the inhibition in vivo at 0.19 mg/kg/day was 14.3%, the inhibition in vivo at 0.39 mg/kg/day was 59.5%, the inhibition in vivo at 0.78 mg/kg/day is 100% and the inhibition in vivo at 3.12 mg/kg/day stood at 100%. For the same molecule, the inhibition in vivo at 12.5 mg/kg/day in series [1] (setting [4]) is 100%. Further, in series [1] (setting [5]), the inhibition in vivo at 50 mg/kg/day was found to be 100%. In addition, the minimal effective dose in series [1] (setting [6]) turned out to be 0.78 mg/kg/day. In addition, the “Toxic” value in series [1] (setting [7]) is recorded as “Toxic (4/5)*”. This molecule also returned an MTD at 168 h in series [3] of 50 mg/kg/day.

As to `CO[C@H]1O[C@H](CO)[C@@H](O)[C@H](N(CC(C)C)C(=O)N(CCCl)N=O)[C@H]1O` [Compound 2, 1 - (2 - chloroethyl) - 1 - nitroso - 3 - isobutyl - 3 - (methyl 3 - deoxy - a - D - glucopyranosid - 3 - yl)urea], in series [2] (setting [13]), the “ILS (%)” value came out at 57.0% and the 60-day survivors was 0/4. In series [2] (setting [8]), the “ILS (%)” value was >597.7% and the 60-day survivors is 4/4. Besides, in series [2] (setting [9]), the “ILS (%)” value is reported as >597.7% and the 60-day survivors was 4/4. In addition, the “Mean survival days (T/C)” value in series [2] (setting [14]) is on record as 13.5/8.6 days. The “Mean survival days (T/C)” value in series [2] (setting [11]) is >60.0/8.6 days. In addition, the “Mean survival days (T/C)” value in series [2] (setting [12]) is >60.0/8.6 days. In series [1], this molecule yielded a Therapeutic index of 128. Moreover, in series [1] (setting [4]), the inhibition in vivo at 0.097 mg/kg/day amounted to 8.1%, the inhibition in vivo at 0.195 mg/kg/day worked out at 100%, the inhibition in vivo at 0.39 mg/kg/day turned out to be 100% and the inhibition in vivo at 1.56 mg/kg/day amounted to 100%. For the same molecule, the inhibition in vivo at 6.25 mg/kg/day in series [1] (setting [4]) worked out at 100%. In addition, the inhibition in vivo at 25 mg/kg/day in series [1] (setting [15]) amounted to 100%. For the same molecule, in series [1] (setting [6]), the minimal effective dose was 0.195 mg/kg/day. Moreover, the “Toxic” value in series [1] (setting [16]) is “Toxic (1/5)*”. In series [3], the MTD at 168 h is 25 mg/kg/day.

On to `CO[C@H]1O[C@H](CO)[C@@H](O)[C@H](N(C)C(=O)N(CCCl)N=O)[C@H]1O` [Compound 3, 1 - (2 - chloroethyl) - 1 - nitroso - 3 - methyl - 3 - (methyl 3 - deoxy - a - D - glucopyranosid - 3 - yl)urea], for which the “ILS (%)” value is 70.2% in series [2] (setting [17]), >361.9% in series [2] (setting [13]), >614.3% in series [2] (setting [8]) and >614.3% in series [2] (setting [9]). Besides, the “Mean survival days (T/C)” value in series [2] (T (treated mice), dose 1.56 mg/kg/day i.p. x 5 days) is given as 14.3/8.4 days; in series [2] (setting [14]), >38.8/8.4 days; in series [2] (setting [11]) it was >60.0/8.4 days; in series [2] (setting [12]), >60.0/8.4 days. In series [2] (daily dose of 0.26 mg/kg intraperitoneally for five consecutive days), the “increase in the average life span” value is “about 30%”. Moreover, the 60-day survivors in series [2] (setting [17]) is given as 0/4; in series [2] (setting [13]), 2/4; in series [2] (setting [8]) it was 4/4; in series [2] (setting [9]) it was 4/4. Besides, in series [1], the Therapeutic index came out at 64. Besides, the inhibition in vivo at 0.097 mg/kg/day in series [1] (setting [4]) was 2.7%. Also, in series [1] (setting [4]), the inhibition in vivo at 0.195 mg/kg/day was 81.1%. In series [1] (setting [4]), the inhibition in vivo at 0.39 mg/kg/day is 100%. The inhibition in vivo at 1.56 mg/kg/day in series [1] (setting [4]) is 100%. Also, in series [1] (setting [4]), the inhibition in vivo at 6.25 mg/kg/day was determined as 100%. Besides, in series [1] (setting [15]), the inhibition in vivo at 25 mg/kg/day is 100%. Also, in series [1] (setting [6]), the minimal effective dose came out at 0.39 mg/kg/day. For the same molecule, the “Toxic” value in series [1] (setting [16]) was “Toxic (1/5)*”. This molecule showed an MTD at 168 h in series [3] of 25 mg/kg/day.

`C#CCN(C(=O)N(CCCl)N=O)[C@@H]1[C@@H](O)[C@@H](OC)O[C@H](CO)[C@H]1O` [Compound 5, 1 - (2 - chloroethyl) - 1 - nitroso - 3 - propargyl - 3 - (methyl 3 - deoxy - a - D - glucopyranosid - 3 - yl)urea] had a Therapeutic index in series [1] of 32. Also, in series [1] (setting [4]), the inhibition in vivo at 0.39 mg/kg/day is 35.1%, the inhibition in vivo at 0.78 mg/kg/day is 100%, the inhibition in vivo at 1.56 mg/kg/day is 100% and the inhibition in vivo at 6.25 mg/kg/day was found to be 100%. In series [1] (setting [15]), the inhibition in vivo at 25 mg/kg/day was found to be 100%. Also, the minimal effective dose in series [1] (setting [6]) came out at 0.78 mg/kg/day. Also, the “Toxic” value in series [1] (setting [16]) is given as “Toxic (1/5)*”. This molecule also displayed an MTD at 168 h in series [3] of 25 mg/kg/day.

In the case of `COCCN(C(=O)N(CCCl)N=O)[C@@H]1[C@@H](O)[C@@H](OC)O[C@H](CO)[C@H]1O` [Compound 6, 1 - (2 - chloroethyl) - 1 - nitroso - 3 - (2 - methoxyethyl) - 3 - (methyl 3 - deoxy - a - D - glucopyranosid - 3 - yl)urea], in series [1], the Therapeutic index was determined as 128. Also, in series [1] (setting [4]), the inhibition in vivo at 0.097 mg/kg/day worked out at 0%, the inhibition in vivo at 0.195 mg/kg/day stood at 100%, the inhibition in vivo at 0.39 mg/kg/day was determined as 100% and the inhibition in vivo at 1.56 mg/kg/day was 100%. Besides, the inhibition in vivo at 6.25 mg/kg/day in series [1] (setting [4]) came to 100%. In addition, in series [1] (setting [15]), the inhibition in vivo at 25 mg/kg/day came to 100%. Moreover, the minimal effective dose in series [1] (setting [6]) was 0.195 mg/kg/day. For the same molecule, the “Toxic” value in series [1] (setting [16]) was “Toxic (2/5)*”. Also, the MTD at 168 h in series [3] is 25 mg/kg/day.

In series [1], `O=NN(CCCl)C(=O)N[C@@H]1O[C@H](CO)[C@@H](O)[C@H](O)[C@H]1O` [GANU, 1-(2-chloroethyl)-1-nitroso-3-β-(D-glucopyranosyl)urea, reference compound] yielded a Therapeutic index of 32. In addition, the inhibition in vivo at 0.09 mg/kg/day in series [1] (Mus musculus, Ehrlich, ip, 168 h, dose 0.09 mg/kg/day i.p. x 5 days, read-out: Inhibition ratio (%)) amounted to 4.2%. In addition, in series [1] (setting [4]), the inhibition in vivo at 0.19 mg/kg/day is 79.2%, the inhibition in vivo at 0.39 mg/kg/day was 100%, the inhibition in vivo at 0.78 mg/kg/day was 100% and the inhibition in vivo at 3.12 mg/kg/day worked out at 100%. For the same molecule, the inhibition in vivo at 12.5 mg/kg/day in series [1] (setting [4]) stood at 100%. Also, the minimal effective dose in series [1] (setting [6]) is 0.39 mg/kg/day. Further, the “Toxic” value in series [1] (setting [10]) is “Toxic (5/5)*”. Further, the MTD at 168 h in series [3] amounted to 12.5 mg/kg/day.

A word on the MTD: it is the largest dose that counted as tolerated. The low end stands for a narrow tolerated range, the high end for a wide tolerated range.

The values above are taken from patent EP0056458B1, “Nitrosourea derivatives, a process for preparing same and therapeutic compositions” (Tanabe Seiyaku Co., Ltd., priority 1981, dated 1982).
